Data published in US4698350A, “1-ethyl-6-fluoro-1,4-dihydro- 7-(2,6-dimethyl-4-pyridinyl)-4-oxo-3-quinolinecarboxylic acid and antibacterial use thereof” (Sterling Drug Inc., priority 1984, dated 1987).
Converted amounts (≈) assume the structure as drawn. Read-outs that look alike come from different tables or passages of the source.

Key:
[1] = test system: S. aureus 21-81A; assay: In vitro antibacterial MIC/MBC test; assay type: cell-based; conditions: Staphylococcus aureus, 2181A
In short: (§1)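 In this microdilution assay, strains are exposed to two-fold compound dilutions in MHB (streptococci in BHI+1% NHS) at roughly 1×10^4 cells per well for 18-20 hours at 37° C. Visible growth defines the MIC. Subculture onto MHA or BHI agar+10% NHS defines the MBC.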

[2] = test system: S. enterococcus 0-2-13; assay: In vitro antibacterial MIC/MBC test; assay type: cell-based; conditions: Enterococcus, 0213
In short: as §1

[3] = test system: S. epidermidis 1-5-H; assay: In vitro antibacterial MIC/MBC test; assay type: cell-based; conditions: Staphylococcus epidermidis, 15H
In short: as §1

[4] = test system: S. epidermidis 2-1-B; assay: In vitro antibacterial MIC/MBC test; assay type: cell-based; conditions: Staphylococcus epidermidis, 21B
In short: as §1

[5] = test system: S. pneumoniae Type III; assay: In vitro antibacterial MIC/MBC test; assay type: cell-based; conditions: Streptococcus pneumoniae
In short: as §1

[6] = test system: S. pyogenes 7948-15; assay: In vitro antibacterial MIC/MBC test; assay type: cell-based; conditions: Streptococcus pyogenes, 794815
In short: as §1

[7] = test system: S. pyogenes C203; assay: In vitro antibacterial MIC/MBC test; assay type: cell-based; conditions: Streptococcus pyogenes, C203
In short: as §1

[8] = test system: S. aureus; assay: In vitro MIC/MBC summary (Table II); assay type: cell-based; conditions: Staphylococcus aureus, 15 S. aureus strains
Procedure: (§2) Win 52,522 and Win 35,439 were solubilized in 0.1 ml of 0.5 N NaOH/mg of compound and diluted in sterile distilled water to 160 mcg/ml. Vancomycin and methicillin were solubilized in sterile distilled water to 1250 mcg/ml of base compound. The stock solutions were sterilized by filtration through membrane filters with a 0.45 μm pore size.
(§3) The bacterial cultures listed in Table I (hereinbelow) were grown overnight at 37° C. in MHB for all cultures except the Streptococcus strains. These were grown in BHI+10% NHS. The overnight broth cultures were adjusted to an optical density of 0.10 (650 nm, B L Spectronic 20) in sterile distilled water and subsequently diluted to 6.7×10^6 cells/ml in MHB or BHI+1% NHS.
(§4) Serial two-fold dilutions of the compound solutions were prepared in MHB (or in BHI+1% NHS for tests with Streptococci) and dispensed into 96-well microtiter trays in a volume of 0.1 ml/well using a Sandy Springs (Bellco Glass Co.) dispenser. The trays were then inoculated with 0.0015 ml of a suspension containing 6.7×10^6 cells/ml of the appropriate inoculum using a MIC-2000 inoculator (Dynatech Corp.) resulting in a final inoculum of approximately 1×10^4 cells/well or 1×10^5 cells/ml. The trays were incubated at 37° C. for 18-20 hours and the minimal inhibitory concentration (MIC), defined as the lowest concentration of compound to inhibit visible bacterial growth, was recorded.
(§5) After the MIC values were recorded, the contents in the microtiter trays were thoroughly mixed on a Bellco Mini-orbital Shaker (Bellco Glass Co.) for 3 min. at a setting of 8. A portion (0.0015 ml) from each well was then transferred via an MIC-2000 inoculator to plates containing MHA or BHI agar+10% NHS. The plates were incubated at 37° C. for 18-20 hrs. The minimal bactericidal concentration (MBC), defined as the lowest concentration of compound that prevented the formation of a recognizable colony on the agar surface, was recorded.

[9] = test system: Streptococcus sp.; assay: In vitro MIC/MBC summary (Table II); assay type: cell-based; conditions: Streptococcus
Procedure: as §2, §3, §4, §5

[10] = test system: S. edidermidis; assay: In vitro MIC/MBC summary (Table II); assay type: cell-based, S. epidermidis; conditions: Staphylococcus epidermidis
Procedure: as §2, §3, §4, §5

[11] = test system: Staphylococcus aureus Smith; assay: Mouse protection test, S. aureus Smith infection, single dose; assay type: in vivo, ICR mice; Staphylococcus aureus; conditions: for Survivors/Total: single dose
Procedure: (§6) ICR mice, female, 18-20 grams each.
(§7) Solutions of Win 52,522 and Win 35,439 were prepared by dissolving the appropriate weight of drug in 0.3 to 0.4 ml of 1 N NaOH and then bringing the solutions to the desired volume with distilled water. Methicillin and vancomycin were dissolved directly in distilled water.
Two and one-half ml of pool were added to 247.5 ml of 5% gastric mucin to provide the test inoculum containing 2.1×10^4 cells/ml.
(§8) Mice were inoculated intraperitoneally with 0.5 ml of the bacterial test inoculum.
1. Single dose test--Mice were medicated subcutaneously or orally once (0.5 ml) one-half hour postinfection.
(§9) Deaths were recorded daily for seven days for all tests. Fifty percent protective dose values (PD50's) were calculated using probit analysis [SAS Users Guide: Statistics, 1982 Edition, SAS Institute, Inc., Cary, N.C.].

[12] = test system: Staphylococcus aureus 39881 (Methicillin-resistant); assay: Mouse protection test, S. aureus 39881 (methicillin-resistant) infection; assay type: in vivo, ICR mice; Staphylococcus aureus; conditions: for Survivors/Total: two doses
Procedure: as §6, §7
The culture was streaked onto three Brain Heart Infusion Agar plates and incubated 16 hours at 37° C. The cells were washed off each plate with five ml of saline and the cell suspension was shaken with glass beads for two minutes on a paint shaker. The suspension was diluted with saline so that a […] gave a 44% T reading on a B+L Spectronic 20 (650 nm) calibrated with saline. The stock suspension was diluted 1:24 (10 ml stock suspension+230 ml 5% mucin) to obtain the test inoculum containing 1.55×10^9 cells/ml.
as §8
Mice were medicated twice: at one-half and four hours postinfection. The drugs were administered by both subcutaneous (0.2 ml) and oral (0.5 ml) routes.
as §9

[13] = Staphylococcus aureus, sc, 168 h, read-out: Protective Dose 50% (95% Confidence Limits)

CN[C@H](CC(C)C)C(=O)N[C@H]1C(=O)N[C@@H](CC(N)=O)C(=O)N[C@H]2C(=O)N[C@H]3C(=O)N[C@H](C(=O)N[C@H](C(=O)O)c4cc(O)cc(O)c4-c4cc3ccc4O)[C@H](O)c3ccc(c(Cl)c3)Oc3cc2cc(c3O[C@@H]2O[C@H](CO)[C@@H](O)[C@H](O)[C@H]2O[C@H]2C[C@](C)(N)[C@H](O)[C@H](C)O2)Oc2ccc(cc2Cl)[C@H]1O [Vancomycin]
MBC [1]: 1 µg/mL (≈ 0.69 µM)
MIC [1]: 0.5 µg/mL (≈ 0.345 µM)
MBC [2]: 16 µg/mL (≈ 11 µM)
MIC [2]: 0.25 µg/mL (≈ 0.173 µM)
MBC [3]: 2 µg/mL (≈ 1.38 µM)
MIC [3]: 2 µg/mL (≈ 1.38 µM)
MBC [4]: 2 µg/mL (≈ 1.38 µM)
MIC [4]: 1 µg/mL (≈ 0.69 µM)
MBC [5]: 16 µg/mL (≈ 11 µM)
MIC [5]: ≤ 0.06 µg/mL
MBC [6]: 16 µg/mL (≈ 11 µM)
MIC [6]: 16 µg/mL (≈ 11 µM)
MBC [7]: 16 µg/mL (≈ 11 µM)
MIC [7]: 16 µg/mL (≈ 11 µM)
MBC ([8]; read-out: MBC 50%): 1 µg/mL (≈ 0.69 µM)
MBC ([8]; read-out: MBC 90%): 1 µg/mL (≈ 0.69 µM)
MBC ([8]; read-out: MBC Range): 0.5 to 1 µg/mL (≈ 0.345 to 0.69 µM)
MIC50 ([8]; read-out: MIC 50%): 1 µg/mL (≈ 0.69 µM)
MIC90 ([8]; read-out: MIC 90%): 1 µg/mL (≈ 0.69 µM)
MIC ([8]; read-out: MIC Range): 0.5 to 1 µg/mL (≈ 0.345 to 0.69 µM)
MIC50 [9]: 2 µg/mL (≈ 1.38 µM)
MIC90 [9]: 16 µg/mL (≈ 11 µM)
MBC ([9]; read-out: MBC 50%): 16 µg/mL (≈ 11 µM)
MBC ([9]; read-out: MBC 90%): > 125 µg/mL
MIC ([9]; read-out: MIC Range): 0.06 to 16 µg/mL (≈ 0.0414 to 11 µM)
MIC50 [10]: 1 µg/mL (≈ 0.69 µM)
MIC90 [10]: 1 µg/mL (≈ 0.69 µM)
MBC ([10]; read-out: MBC 50%): 1 µg/mL (≈ 0.69 µM)
MBC ([10]; read-out: MBC 90%): 2 µg/mL (≈ 1.38 µM)
MBC ([10]; read-out: MBC Range): 1 to 2 µg/mL (≈ 0.69 to 1.38 µM)
MIC ([10]; read-out: MIC Range): 1 to 2 µg/mL (≈ 0.69 to 1.38 µM)
Survivors/Total ([11]; 0.78 mg/kg sc): 2/10
Survivors/Total ([11]; 1.56 mg/kg sc): 9/10
Survivors/Total ([11]; 3.13 mg/kg sc): 9/10
Survivors/Total ([11]; 6.25 mg/kg sc): 10/10
Survivors/Total ([11]; 12.5 mg/kg sc): 10/10
ED50 [11, 13]: 1.1 mg/kg
Survivors/Total ([12]; 6.25 mg/kg sc): 0/10
Survivors/Total ([12]; 12.5 mg/kg sc): 1/10
Survivors/Total ([12]; 25 mg/kg sc): 9/10
Survivors/Total ([12]; 50 mg/kg sc): 10/10
ED50 [12, 13]: 17.7 mg/kg
